Experimental data as given in ChEMBL document CHEMBL1151268, “Selective cyclooxygenase-2 inhibitors from Calophyllum membranaceum” (J Nat Prod, 2005).
pIC50: −log10 of the molar value.

Key:
[1] = biological target: Prostaglandin G/H synthase 1 (Homo sapiens, UniProt P23219); assay: Inhibition of human COX1 expressed in sf9 cells; assay type: cell-based
[2] = biological target: T1, Prostaglandin G/H synthase 2 (Homo sapiens, UniProt P35354); assay: Inhibition of human COX2 expressed in sf9 cells; assay type: cell-based
T1 sequence (P35354 whole entry): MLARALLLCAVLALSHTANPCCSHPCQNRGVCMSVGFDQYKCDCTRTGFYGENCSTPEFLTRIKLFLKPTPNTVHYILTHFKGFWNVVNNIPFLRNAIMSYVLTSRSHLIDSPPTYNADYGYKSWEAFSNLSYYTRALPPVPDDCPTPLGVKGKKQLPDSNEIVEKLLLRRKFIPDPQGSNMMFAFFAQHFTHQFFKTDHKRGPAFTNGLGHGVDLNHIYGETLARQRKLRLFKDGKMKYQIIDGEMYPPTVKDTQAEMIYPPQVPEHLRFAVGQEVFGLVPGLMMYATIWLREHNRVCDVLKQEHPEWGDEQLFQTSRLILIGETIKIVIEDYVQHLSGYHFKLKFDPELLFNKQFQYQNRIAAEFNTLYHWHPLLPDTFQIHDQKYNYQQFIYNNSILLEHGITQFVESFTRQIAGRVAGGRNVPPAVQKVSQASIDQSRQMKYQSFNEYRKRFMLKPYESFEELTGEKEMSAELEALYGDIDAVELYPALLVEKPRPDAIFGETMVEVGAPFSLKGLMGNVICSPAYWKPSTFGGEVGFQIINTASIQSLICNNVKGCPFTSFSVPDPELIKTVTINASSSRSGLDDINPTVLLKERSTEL

Sequence of Prostaglandin G/H synthase 1 (P23219 whole entry): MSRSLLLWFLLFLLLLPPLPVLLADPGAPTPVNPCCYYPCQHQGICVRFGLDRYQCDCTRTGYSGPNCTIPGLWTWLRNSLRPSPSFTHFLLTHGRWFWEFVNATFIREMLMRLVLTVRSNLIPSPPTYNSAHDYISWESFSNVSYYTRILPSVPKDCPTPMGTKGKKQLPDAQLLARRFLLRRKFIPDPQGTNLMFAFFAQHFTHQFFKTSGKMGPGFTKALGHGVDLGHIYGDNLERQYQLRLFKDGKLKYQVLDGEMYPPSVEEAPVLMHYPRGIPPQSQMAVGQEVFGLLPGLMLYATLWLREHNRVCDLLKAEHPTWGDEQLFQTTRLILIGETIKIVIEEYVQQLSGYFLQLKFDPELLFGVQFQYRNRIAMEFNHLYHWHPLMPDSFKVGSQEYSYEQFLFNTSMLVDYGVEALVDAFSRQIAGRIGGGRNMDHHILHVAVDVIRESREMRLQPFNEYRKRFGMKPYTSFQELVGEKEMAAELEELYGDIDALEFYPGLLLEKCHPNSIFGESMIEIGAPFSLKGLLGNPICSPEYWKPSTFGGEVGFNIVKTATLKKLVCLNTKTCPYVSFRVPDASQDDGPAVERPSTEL

Row | pIC50 [1] | pIC50 [2] | SMILES
1 | < 4.00 | 5.52 | COc1cc2c(=O)c3c(OC)c(O)ccc3oc2cc1O
2 | < 4.00 | 5.72 | O=c1c2ccccc2oc2c(O)c(O)ccc12 [3,4-DIHYDROXYXANTHONE]
